US7749962B2, “Alpha 5 beta 1 and its ability to regulate the cell survival pathway” (University of Medicine & Dentistry of NJ, priority 2002, dated 2010)
Read-outs that look alike come from different tables or passages of the source.

How the values were obtained:
[1] = system: MCF-7 and T-47D cells; assay: Clonogenic potential with growth factors in tissue culture; type: cell-based; details: growth factor 10 ng/ml
Protocol: (§1) One thousand MCF-7 or MDA MB-231 cells per well were incubated in 24 well tissue culture plates with and without the presence of 10 ng/ml basic fibroblast growth factor (FGF-2) or epidermal growth factor (EFG). Plates were stained with crystal violet after a 5 day incubation and clones consisting of A. 29±2 cells and B. 8±2 cells were counted. C. Ten thousand T-47D cells per well were incubated in 24 well tissue culture plates coated with fibronectin with and without the presence of 10 ng/ml basic fibroblast growth factor (FGF-2) or epidermal growth factor (EFG). Plates were stained with crystal violet after 3 days and clones consisting of 8 or more cells were counted.
(§2) MCF-7 and T-47D (1,000 cells/well) and MDA MB-231 (200 cells per well) were incubated in 24 well plates±10 ng/ml EFG or FGF-2 for 6 days, stained with crystal violet and clones with ≧29 actively growing cells (▪) or with ≦10 well spread, growth arrested cells ( ? ) were counted.
(§3) MCF-7, SK-Br-3, MDA-MB-231, PC-3 and LNCaP cells were purchased from the American Type Culture Collection (ATCC), (Rockville, Md.). Cells were cultured in Dulbecco's Modified Eagle's Medium (DMEM) (Gibco BRL, Gaithersburg, Md.) with phenol red 15 mg/l, 2 mM glutamine, 10% heat inactivated fetal calf serum (FCS) and penicillin 50 units/ml and streptomycin 50 micrograms μg/ml (Gemini Bioproducts, Calabasas, Calif.). One to ten thousand cells were incubated on 24 well tissue culture plates that were either commercially coated for tissue culture (uncoated) or coated with 20 g fibronectin, laminin I, collagen I or collagen IV, depending on the cell type or experimental conditions described in the figure legends. Colonies were manually counted at 100× magnification after variable days in culture as described in the figure legends after removing the media and staining cells with crystal violet. Proliferation kinetics were performed as before^1 using 2% trypan blue counts on trypsinized cells on the days indicated in the figure in triplicate plates.

[2] = system: MDA-MB-231 cells; assay: as above; type: cell-based; details: growth factor 10 ng/ml
Protocol: as §1, §2, §3

[3] = biological target: RhoA (Homo sapiens, UniProt P61586); details: target RhoA, cited from earlier work
[4] = system: MCF-7 cells; assay: Clonogenicity ± fibronectin with FGF-2 and fibronectin-blocking peptide; type: cell-based; details: FGF-2 10 ng/ml; peptide 1 ng/ml added after 3 days, counted 6 days later
Protocol: 10^3 MCF-7 (and T-47D, not shown) cells were incubated±fibronectin with 10 ng/ml FGF-2. Fibronectin-blocking peptide GRGDSP 1 ng/ml (American Peptide Co., Inc, Sunnyvale, Calif.) was added after 3 days and 4, 8 and 12 cell colonies were counted 6 days later.
as §3

[5] = system: Akt; assay: Western blot of Akt phosphorylation by FGF-2 on fibronectin; type: cell-based
Protocol: Western blots of lysates from MCF-7, T-47D and MDA-MB-231 cells incubated on fibronectin-coated plates with FGF-2 for up to 5 days were stained with antibody to phospho-Akt or total Akt. […] No effect was noted on total Akt levels. Stained membrane was used as a loading control.
(§4) Cells were harvested and lysates were prepared as described^2 and analyzed as before^3.

[6] = system: integrin α5; assay: Western blot of integrin α5 expression ± FGF-2; type: cell-based
Protocol: A. Gene chip analysis of integrin α5 and β1 mRNA expression in MCF-7 cells incubated±FGF-2 for 3 or 5 days on fibronectin-coated plates. Densitometer quantitations normalized against GAPDH and actin mRNA standards are shown. B. Western blots of integrin α5 from cells incubated±FGF-2 for 3 days on tissue culture- or fibronectin-coated dishes. C. Indirect immunofluorescence of integrin α5 in T-47D cells on cover slips±FGF-2 10 ng/ml for 24 hours. D. Western blots of integrins α2, α3, α4, α6, β1, β3 and β4 in MCF-7 and T-47D cells incubated±FGF-2 for 3 days. Nonspecific bands were as loading controls.
as §4

[7] = system: Akt; assay: Western blot of Akt phosphorylation after ATRA; type: cell-based
Protocol: MCF-7 cells were treated with EGF 100 ng/ml for 10 min followed by ATRA 10^−7 M or control media 2 h later for an additional 24 h. Western blots of lysates were stained with anti-phospho-Akt ab. Cells were harvested and lysates were prepared as described^2 and analyzed as before^3.

Chain of RhoA (P61586 whole entry, species assumed): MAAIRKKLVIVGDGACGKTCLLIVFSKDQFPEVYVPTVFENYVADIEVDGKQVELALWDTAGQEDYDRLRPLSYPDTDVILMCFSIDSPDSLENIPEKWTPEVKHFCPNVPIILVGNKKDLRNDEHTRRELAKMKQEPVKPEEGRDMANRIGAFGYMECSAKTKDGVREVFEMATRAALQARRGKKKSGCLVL

## EFG: epidermal growth factor; recombinant human, R&D Systems
[1]
  clonogenic potential: no effect
[2]
  growth (clonogenic potential): no effect

## C3 transferase
[3]
  ED50: 2 to 5 µg/mL
[3]; listed as C3 transferase inhibitor
  ED50: 2 to 5 µg/mL

## GRGDSP
[4]
  colonies on fibronectin: only inhibited colonies on fibronectin
  colonies on plastic: not on plastic

## FGF-2: fibroblast growth factor 2, basic fibroblast growth factor; recombinant human, R&D Systems
[5]; MCF-7 and T-47D cells on fibronectin, up to 5 days
  phosphorylation of Akt: induced phosphorylation of Akt
[5]; MDA-MB-231 cells on fibronectin, constitutive phosphorylation
  phosphorylation of Akt: no effect on constitutive Akt phosphorylation
[6]; MCF-7 and T-47D cells on plastic or fibronectin-coated dishes
  integrin α5 expression: induction of integrin α5 expression
[6]; MDA-MB-231 cells, baseline high levels
  integrin α5 expression: No effect
[1]
  clonogenic potential: markedly diminished clonogenic potential
[2]
  growth (clonogenic potential): no effect

## CC1=C(/C=C/C(C)=C/C=C/C(C)=C/C(=O)O)C(C)(C)CCC1 [ATRA, all-trans retinoic acid]
[7]
  FGF-2 induced increases in total and phosphorylated Akt: reversed FGF-2 induced increases in total and Phosphorylated Akt
[7]; MCF-7 cells, EGF 100 ng/ml, ATRA 10^−7 M for 24 h
  EGF-mediated phosphorylation of Akt: reversed the EGF-mediated phosphorylation of Akt
